Measurements: ChEMBL document CHEMBL4483862, “Open-source discovery of chemical leads for next-generation chemoprotective antimalarials” (2018)

Test system: Plasmodium berghei
Experiment: Luciferase/luciferin-expressing antifolate-resistant parasites were used to infect a culture of HepG2 cells that were pre-incubated with compounds. Infected hepatocytes emit light due to the luciferase reaction. Assay results are presented as the percent inhibition of light emission compared to control. […]
Type: functional
Conditions: sporozoite; for IC50: read-out: LUCIFERASE INFECTION ASSAY - IC50; for IC90: read-out: LUCIFERASE INFECTION ASSAY - IC90

CC(C)c1ccc(Nc2ncc3c(n2)CCN(C(=O)Nc2ccc(F)c(Cl)c2)C3)cc1
IC50: > 7.5 µM
IC90: > 7.5 µM

O=C(Nc1ccc(OC(F)(F)F)cc1)N1CCc2nc(NCc3cccc(Oc4ccccc4)c3)ncc2C1
IC50: > 6.16 µM
IC90: > 6.16 µM

Cc1ccc2nc(C(F)(F)F)c(C(=O)NCc3cc(Cl)cc(Cl)c3)n2c1
IC50: > 8.2 µM
IC90: > 8.2 µM

CC(C)c1ccc(NC(=O)N2CCc3nc(NCc4cccc(Oc5ccccc5)c4)ncc3C2)cc1
IC50: > 6.69 µM
IC90: > 6.69 µM

Cc1cc(-c2cn3c(-c4ccc5ncccc5c4)cnc3cn2)cc(C)c1O
IC50: 8.6 µM
IC90: > 9.01 µM

COc1ccc(-c2cn3c(-c4cccc(O)c4)cnc3cn2)cn1
IC50: > 10.4 µM
IC90: > 10.4 µM

Cn1ccc2cc(-c3cn4c(-c5ccc6ncccc6c5)cnc4cn3)ccc21
IC50: 1.36 µM
IC90: 3.52 µM

Oc1cccc(-c2cnc3cnc(-c4cccs4)cn23)c1
IC50: > 11.2 µM
IC90: > 11.2 µM

OCc1ccc(-c2cnc3cnc(-c4ccco4)cn23)cc1
IC50: > 11.3 µM
IC90: > 11.3 µM

O=C(Nc1cccc(F)c1)N1CCC2(CC1)OCc1cc(-c3ccco3)ccc1O2
IC50: > 8.08 µM
IC90: > 8.08 µM

OCc1ccc(-c2cnc3cnc(-c4cccc(F)c4)cn23)cc1
IC50: > 10.3 µM
IC90: > 10.3 µM

O=S(=O)(Nc1nn(Cc2ccc(C(F)(F)F)cc2)c2ccccc12)c1cccc2nsnc12
IC50: > 6.74 µM
IC90: > 6.74 µM

COc1ccc(N2CCN(c3nccnc3-c3ccccc3)CC2)cc1OC
IC50: 0.382 µM
IC90: 0.978 µM

CN1CCN(c2ccc(-c3cn4c(-c5ccc(Oc6ccccc6)cc5)cnc4cn3)cn2)CC1
IC50: 6.77 µM
IC90: > 7.13 µM

CCSc1nc2scc(C(F)(F)F)n2c(=O)c1C(=O)N1CC(C)CC(C)C1 (stereo unspecified)
IC50: > 7.87 µM
IC90: > 7.87 µM

CN(C)c1cccc(-c2cnc3cnc(-c4ccc(C(=O)NCCO)cc4)cn23)c1
IC50: > 8.22 µM
IC90: > 8.22 µM

Cn1ccc2cc(-c3cn4c(-c5ccc(C(=O)NC6CC6)cc5)cnc4cn3)ccc21
IC50: 2.7 µM
IC90: 3.32 µM

COc1cc(-c2cnc3cnc(-c4ccc(C(=O)NCCN(C)C)cc4)cn23)ccc1O
IC50: > 7.65 µM
IC90: > 7.65 µM

Cc1ccc(-c2cnc3ccc(NC4CCOCC4)nn23)cc1
IC50: 3.16 µM
IC90: 10.4 µM

O=C(Nc1ccc(OC(F)(F)F)cc1)N1CCc2nc(Nc3cc(Cl)cc(Cl)c3)ncc2C1
IC50: > 6.62 µM
IC90: > 6.62 µM

CCCN1CCc2nc(Nc3ccc(Oc4ccccc4)cc3)ncc2C1
IC50: > 9.16 µM
IC90: > 9.16 µM

COc1ccc(-c2cnc3ccc(NCc4ccc5c(c4)OCO5)nn23)cc1
IC50: 0.746 µM
IC90: 1.36 µM

Cc1c(C(=O)Nc2cccc(Oc3ccccc3)c2)sc(=O)n1Cc1ccncc1
IC50: > 7.9 µM
IC90: > 7.9 µM

O=C(NC1CCCC1)c1ccc(-c2cn3c(-c4ccc5ncccc5c4)cnc3cn2)cc1
IC50: > 7.61 µM
IC90: > 7.61 µM

CS(=O)(=O)Nc1cccc(-c2cn3c(-c4cccc(CO)c4)cnc3cn2)c1
IC50: > 8.37 µM
IC90: > 8.37 µM

Cn1ccc2cc(-c3cnc4cnc(-c5ccc(C(=O)NCCO)cc5)cn34)ccc21
IC50: 6.16 µM
IC90: 7.65 µM

Cc1c(C(=O)NC2CC2)sc(=O)n1Cc1ccc(-c2ccccc2)cc1
IC50: 1.9 µM
IC90: 8.88 µM

CCNC(=O)N1CCc2nc(Nc3cc(Cl)cc(Cl)c3)ncc2C1
IC50: > 9.01 µM
IC90: > 9.01 µM

c1cncc(-c2cn3c(-c4cccs4)cnc3cn2)c1
IC50: > 11.9 µM
IC90: > 11.9 µM

c1cncc(-c2cn3c(-c4ccsc4)cnc3cn2)c1
IC50: > 11.9 µM
IC90: > 11.9 µM

Cc1ccccc1S(=O)(=O)Nc1nccnc1N1CCN(S(=O)(=O)c2cccc3ccccc23)CC1
IC50: > 6.3 µM
IC90: > 6.3 µM

CC(C)c1ccc(NC(=O)N2Cc3cnc(Nc4ccc(OCCN5CCCC5)cc4)nc3C2)cc1
IC50: > 6.78 µM
IC90: > 6.78 µM

c1ccc(Oc2ccccc2-c2cnc3c(NCc4cccs4)nccn23)cc1
IC50: 4.96 µM
IC90: > 8.28 µM

CCCN1CCc2nc(NCc3ccc(Oc4ccccc4)cc3)ncc2C1
IC50: > 8.81 µM
IC90: > 8.81 µM

OCc1ccc(-c2cnc3cnc(-c4ccc(Cl)cc4)cn23)cc1
IC50: > 9.83 µM
IC90: > 9.83 µM

COc1cc(-c2cccc(Nc3cccc(OC(F)(F)C(F)F)c3)n2)cc(OC)c1OC
IC50: > 7.29 µM
IC90: > 7.29 µM

CN(C)c1cccc(-c2cnc3cnc(-c4cnn(Cc5ccccc5)c4)cn23)c1
IC50: > 8.37 µM
IC90: > 8.37 µM

O=C(COc1ccccc1)N1CCc2nc(NCc3cccc(Oc4ccccc4)c3)ncc2C1
IC50: > 7.07 µM
IC90: > 7.07 µM

COc1cc(NC(=O)N2Cc3cnc(Nc4cccc(N(C)C)c4)nc3C2)cc(OC)c1OC
IC50: > 7.1 µM
IC90: > 7.1 µM

COc1cc(-c2cnc3cnc(-c4cccc(NC(C)=O)c4)cn23)cc(OC)c1OC
IC50: 3.93 µM
IC90: > 7.89 µM

Cc1ccccc1C(c1ncccc1C)N(C)C(=O)C1CCN(C(=O)c2cccc(Cl)c2)CC1 (stereo unspecified)
IC50: > 6.93 µM
IC90: > 6.93 µM

c1ccc(CN2CCc3nc(NCc4cccc(Oc5ccccc5)c4)ncc3C2)cc1
IC50: > 7.81 µM
IC90: > 7.81 µM

CCNc1cc(C(=O)Nc2ccccc2)ncn1
IC50: 0.963 µM
IC90: > 13.6 µM

c1ccc(Cn2cc(-c3cn4c(-c5ccc6ncccc6c5)cnc4cn3)cn2)cc1
IC50: > 8.2 µM
IC90: > 8.2 µM

CN1CCN(c2ccc(-c3cn4c(-c5ccc(F)c(Cl)c5)cnc4cn3)cn2)CC1
IC50: > 7.8 µM
IC90: > 7.8 µM

Clc1ccc(-c2cnc3ccc(NCc4ccc5c(c4)OCO5)nn23)cc1
IC50: > 8.71 µM
IC90: > 8.71 µM

c1ccc(CN2CCc3nc(NCc4ccc(Oc5ccccc5)cc4)ncc3C2)cc1
IC50: > 7.81 µM
IC90: > 7.81 µM

O=C(Nc1cccnc1)N1CCc2nc(Nc3cc(Cl)cc(Cl)c3)ncc2C1
IC50: > 7.95 µM
IC90: > 7.95 µM

CCCN1CCc2nc(NCc3ccc(Cl)c(Cl)c3)ncc2C1
IC50: 5.58 µM
IC90: > 9.39 µM

CC(C)(C)c1cccc(Nc2ncc(C(=O)c3ccccc3)[nH]2)c1
IC50: 8.64 µM
IC90: > 10.3 µM

COc1ccc(-c2cnc3ccc(NCc4ccc(Cl)c(Cl)c4)nn23)cn1
IC50: 4.63 µM
IC90: 4.73 µM

Nc1ccc(-c2cn3c(-c4ccc(CO)cc4)cnc3cn2)cn1
IC50: 5.8 µM
IC90: 9.13 µM

CCn1c2ccccc2c2cc(Nc3cc(-c4ccc(O)cc4)ncn3)ccc21
IC50: 2.24 µM
IC90: 5.79 µM

COc1ccccc1-c1cnc2c(Nc3ccc(NS(=O)(=O)c4ccc(C)cc4)cc3)nccn12
IC50: 1.57 µM
IC90: > 6.8 µM

O=C(c1cccc(Cl)c1)c1cnc(Nc2cccc(C(F)(F)F)c2)[nH]1
IC50: 5.49 µM
IC90: > 9.02 µM

COc1ccc(CNC(=O)N2CCc3nc(NCc4cccc(Oc5ccccc5)c4)ncc3C2)cc1
IC50: > 6.66 µM
IC90: > 6.66 µM

O=C(Nc1ccc(F)c(Cl)c1)N1CCc2nc(Nc3cc(Cl)cc(Cl)c3)ncc2C1
IC50: > 7.07 µM
IC90: > 7.07 µM

CN1CCN(C(=O)c2cccc(-c3cnc4cnc(-c5ccc(Cl)cc5)cn34)c2)CC1
IC50: > 7.64 µM
IC90: > 7.64 µM

COc1ccc(-c2cnc3cnc(-c4cccc(NS(C)(=O)=O)c4)cn23)cn1
IC50: 4.3 µM
IC90: 7.13 µM

Oc1ccc(-c2cn3c(-c4ccsc4)cnc3cn2)cc1
IC50: 10.6 µM
IC90: > 11.2 µM

COc1ccc(-c2ccc3c(c2)COC2(CCN(C(=O)c4cc(F)ccc4C)CC2)O3)cc1OC
IC50: > 6.91 µM
IC90: > 6.91 µM

OCc1ccc(-c2cnc3cnc(-c4ccccc4CO)cn23)cc1
IC50: > 9.96 µM
IC90: > 9.96 µM

CN(C)CCNC(=O)c1ccc(-c2cnc3c(Nc4ccc(Oc5ccccc5)cc4)nccn23)cc1
IC50: > 6.7 µM
IC90: > 6.7 µM

CCCN1CCc2nc(Nc3ccc(OCc4ccccc4)cc3)ncc2C1
IC50: > 8.81 µM
IC90: > 8.81 µM

CN(C)c1cccc(-c2cnc3cnc(-c4ccccc4)cn23)c1
IC50: > 10.5 µM
IC90: > 10.5 µM

Cc1cccc(NC(=O)N2CCC3(CC2)OCc2cc(-c4ccc(OC(F)(F)F)cc4)ccc2O3)c1
IC50: > 6.62 µM
IC90: > 6.62 µM

OCc1ccccc1-c1cn2c(-c3ccc(Oc4ccccc4)cc3)cnc2cn1
IC50: 0.646 µM
IC90: 8.14 µM

CN(C)C(=O)c1ccc(-c2cnc3cnc(-c4ccc(F)c(Cl)c4)cn23)cc1
IC50: > 8.36 µM
IC90: > 8.36 µM

Cc1nc2sccn2c1C(=O)NCc1ccccc1Oc1ccccc1
IC50: > 9.08 µM
IC90: > 9.08 µM

COc1ccc(-c2cnc3cnc(-c4ccc5c(c4)OCO5)cn23)cc1
IC50: 1.78 µM
IC90: 4.64 µM

COc1cc(NC(=O)N2Cc3cnc(Nc4ccc(OCc5ccccc5)cc4)nc3C2)cc(OC)c1OC
IC50: > 6.25 µM
IC90: > 6.25 µM

c1ccc(NCc2ccc(-c3cn4c(-c5ccncc5)cnc4cn3)cc2)cc1
IC50: > 8.74 µM
IC90: > 8.74 µM

Clc1ccc(CNc2ncc3c(n2)CCN(Cc2ccccc2)C3)cc1Cl
IC50: > 8.26 µM
IC90: > 8.26 µM

O=C(NCCc1cccs1)N1CCc2nc(NCc3cccc(Oc4ccccc4)c3)ncc2C1
IC50: > 6.8 µM
IC90: > 6.8 µM

CCc1nc2ccc(C(=O)N3CCCCC3)cn2c1N(C)CCC(C)C
IC50: > 9.26 µM
IC90: > 9.26 µM

COc1ccc(-c2ccc3c(c2)COC2(CCN(C(=O)c4ccc(F)cc4F)CC2)O3)cc1OC
IC50: > 6.85 µM
IC90: > 6.85 µM

O=C(Cc1ccccc1)NCC(=O)N1CCc2nc(NCc3cccc(Oc4ccccc4)c3)ncc2C1
IC50: > 6.5 µM
IC90: > 6.5 µM

Cn1ccc2cc(-c3cn4c(-c5ccc(Cl)cc5)cnc4cn3)ccc21
IC50: 0.247 µM
IC90: 0.448 µM

c1ccc(Oc2ccc(-c3cnc4cnc(-c5cccnc5)cn34)cc2)cc1
IC50: 3 µM
IC90: 6.96 µM

CN(C)c1cccc(Nc2nccn3c(-c4ccc5c(c4)OCO5)cnc23)c1
IC50: 0.365 µM
IC90: 2.84 µM

Cn1ccc2cc(-c3cn4c(-c5ccncc5)cnc4cn3)ccc21
IC50: > 10.1 µM
IC90: > 10.1 µM

OCc1cccc(-c2cnc3cnc(-c4ccccc4Oc4ccccc4)cn23)c1
IC50: > 8.39 µM
IC90: > 8.39 µM

Clc1cncc(Cl)c1N1CCN(c2ccc(-c3cccnc3)cn2)CC1
IC50: 0.996 µM
IC90: > 8.54 µM
